Reference: ChEMBL document CHEMBL3879893, “Nuclear transport modulators and uses thereof” (2011)
The source made the active and inactive calls. No cut-off for these calls is given here.

Assays:
Exportin-1 [1] = biological target: T1, Exportin-1 (Homo sapiens, UniProt O14980); assay: Inhibition of Crm1 in human U2OS cells expressing GFP-fused HIV1 Rev assessed as decrease in nuclear export of GFP-fused HIV1 Rev after 1 hr by Hoechst 33258 staining-based assay; format: cell-based
BL-41 = assay: Cytotoxicity against human BL41 cells after 72 hrs by CellTiter96 AQueous one solution cell proliferation assay; format: functional, cell-based
Jurkat = assay: Cytotoxicity against human Jurkat cells after 72 hrs by CellTiter96 AQueous one solution cell proliferation assay; format: functional, cell-based
MM1R = assay: Cytotoxicity against human MM1R cells after 72 hrs by CellTiter96 AQueous one solution cell proliferation assay; format: functional, cell-based
HCT-116 = assay: Cytotoxicity against human HCT116 cells after 72 hrs by CellTiter96 AQueous one solution cell proliferation assay; format: functional, cell-based
HS-Sultan = assay: Cytotoxicity against human HS-Sultan cells after 72 hrs by CellTiter96 AQueous one solution cell proliferation assay; format: functional, cell-based
PC-3 = assay: Cytotoxicity against human PC3 cells after 72 hrs by CellTiter96 AQueous one solution cell proliferation assay; format: functional, cell-based
MG-63 = assay: Cytotoxicity against human MG63 cells after 72 hrs by CellTiter96 AQueous one solution cell proliferation assay; format: functional, cell-based
SW480 = assay: Cytotoxicity against human SW480 cells after 72 hrs by CellTiter96 AQueous one solution cell proliferation assay; format: functional, cell-based
NCI-H460 = assay: Cytotoxicity against human NCI-H460 cells after 72 hrs by CellTiter96 AQueous one solution cell proliferation assay; format: functional, cell-based
LoVo = assay: Cytotoxicity against human LoVo cells after 72 hrs by CellTiter96 AQueous one solution cell proliferation assay; format: functional, cell-based
NCI-H520 = assay: Cytotoxicity against human NCI-H520 cells after 72 hrs by CellTiter96 AQueous one solution cell proliferation assay; format: functional, cell-based
COLO 320 = assay: Cytotoxicity against human COLO320 cells after 72 hrs by CellTiter96 AQueous one solution cell proliferation assay; format: functional, cell-based
RPMI18226 = assay: Cytotoxicity against human […] cells after 72 hrs by CellTiter96 AQueous one solution cell proliferation assay; format: functional, cell-based
SW-620 = assay: Cytotoxicity against human SW620 cells after 72 hrs by CellTiter96 AQueous one solution cell proliferation assay; format: functional, cell-based
Homo sapiens [2] = species: Homo sapiens; assay: Cytotoxicity against human LS123 cells after 72 hrs by CellTiter96 AQueous one solution cell proliferation assay; format: functional, cell-based
NCI-H226 = assay: Cytotoxicity against human NCI-H226 cells after 72 hrs by CellTiter96 AQueous one solution cell proliferation assay; format: functional, cell-based
MCF7 = assay: Cytotoxicity against human MCF7 cells after 72 hrs by CellTiter96 AQueous one solution cell proliferation assay; format: functional, cell-based
HCC4006 = assay: Cytotoxicity against human HCC4006 cells after 72 hrs by CellTiter96 AQueous one solution cell proliferation assay; format: functional, cell-based
HCT-15 = assay: Cytotoxicity against human HCT15 cells after 72 hrs by CellTiter96 AQueous one solution cell proliferation assay; format: functional, cell-based
786-0 = assay: Cytotoxicity against human 786-0 cells after 72 hrs by CellTiter96 AQueous one solution cell proliferation assay; format: functional, cell-based
HCC827 = assay: Cytotoxicity against human HCC827 cells after 72 hrs by CellTiter96 AQueous one solution cell proliferation assay; format: functional, cell-based
NCI-H1838 = assay: Cytotoxicity against human NCI-H1838 cells after 72 hrs by CellTiter96 AQueous one solution cell proliferation assay; format: functional, cell-based
4T1 = assay: Cytotoxicity against mouse 4T1 cells after 72 hrs by CellTiter96 AQueous one solution cell proliferation assay; format: functional, cell-based
HeLa = assay: Cytotoxicity against human HeLa cells after 72 hrs by CellTiter96 AQueous one solution cell proliferation assay; format: functional, cell-based
HPAC = assay: Cytotoxicity against human HPAC cells after 72 hrs by CellTiter96 AQueous one solution cell proliferation assay; format: functional, cell-based
Caov-3 = assay: Cytotoxicity against human Caov3 cells after 72 hrs by CellTiter96 AQueous one solution cell proliferation assay; format: functional, cell-based
DLD-1 = assay: Cytotoxicity against human DLD1 cells after 72 hrs by CellTiter96 AQueous one solution cell proliferation assay; format: functional, cell-based
DU-145 = assay: Cytotoxicity against human DU145 cells after 72 hrs by CellTiter96 AQueous one solution cell proliferation assay; format: functional, cell-based
LS180 = assay: Cytotoxicity against human LS180 cells after 72 hrs by CellTiter96 AQueous one solution cell proliferation assay; format: functional, cell-based
HCT-8 = assay: Cytotoxicity against human HCT8 cells after 72 hrs by CellTiter96 AQueous one solution cell proliferation assay; format: functional, cell-based
NCI-H2122 = assay: Cytotoxicity against human NCI-H2122 cells after 72 hrs by CellTiter96 AQueous one solution cell proliferation assay; format: functional, cell-based
WiDr = assay: Cytotoxicity against human WiDr cells after 72 hrs by CellTiter96 AQueous one solution cell proliferation assay; format: functional, cell-based
Homo sapiens [3] = species: Homo sapiens; assay: Cytotoxicity against human H2935 cells after 72 hrs by CellTiter96 AQueous one solution cell proliferation assay; format: functional, cell-based
NCI-H2030 = assay: Cytotoxicity against human NCI-H2030 cells after 72 hrs by CellTiter96 AQueous one solution cell proliferation assay; format: functional, cell-based
Exportin-1 [4] = biological target: T1, Exportin-1; assay: Inhibition of Crm1 in human MM1S cells assessed as potentiation of bortezomib-induced antiproliferative activity by measuring cell survival at 30 to 300 nM after 72 hrs by MTT assay; format: cell-based
Exportin-1 [5] = biological target: T1, Exportin-1; assay: Inhibition of Crm1 in human MM1R cells assessed as potentiation of bortezomib-induced antiproliferative activity by measuring cell survival at 30 to 300 nM after 72 hrs by MTT assay; format: cell-based
Exportin-1 [6] = biological target: T1, Exportin-1; assay: Inhibition of Crm1 in human HS-Sultan cells assessed as potentiation of bortezomib-induced antiproliferative activity by measuring cell survival at 30 to 300 nM after 72 hrs by MTT assay; format: cell-based
Exportin-1 [7] = biological target: T1, Exportin-1; assay: Inhibition of Crm1 in human Jurkat cells assessed as potentiation of bortezomib-induced antiproliferative activity by measuring cell survival at 30 to 300 nM after 72 hrs by MTT assay; format: cell-based
MM1.S [8] = assay: Antitumor activity against 130 mm'3 human MM1S cells xenografted in mouse assessed as tumor growth inhibition at 150 mg/kg, sc qd administered for 5 days; format: functional, organism-based
MM1.S [9] = assay: Antitumor activity against 1300 mm'3 human MM1S cells xenografted in mouse assessed as tumor growth inhibition at 150 mg/kg, sc qd administered for 5 days; format: functional, organism-based
[10] = Antitumor activity against 350 mm'3 human HCT116 cells xenografted in mouse assessed as tumor growth inhibition at 75 mg/kg, sc qd administered for 5 days measured after day 24 relative to control; format: functional; settings: HCT-116, sc, read-out: TGI
[11] = Antitumor activity against 350 mm'3 human HCT116 cells xenografted in mouse assessed as tumor growth inhibition at 150 mg/kg, sc qd administered for 5 days started on day 9 post 75 mg/kg dosing measured after day 24 relative to control; format: functional, HCT-116
[12] = Toxicity in mouse xenografted with 350 mm'3 human HCT116 cells assessed as effect on clinical chemistry parameters at 150 mg/kg, sc qd administered for 5 days started on day 9 post 75 mg/kg dosing; format: organism-based, HCT-116; settings: in vivo, 120 h
[13] = Toxicity in mouse xenografted with 350 mm'3 human HCT116 cells assessed as effect on complete blood count at 150 mg/kg, sc qd administered for 5 days started on day 9 post 75 mg/kg dosing; format: organism-based, HCT-116; settings: in vivo, 120 h

T1 sequence (O14980 whole entry, the tested form may be a part): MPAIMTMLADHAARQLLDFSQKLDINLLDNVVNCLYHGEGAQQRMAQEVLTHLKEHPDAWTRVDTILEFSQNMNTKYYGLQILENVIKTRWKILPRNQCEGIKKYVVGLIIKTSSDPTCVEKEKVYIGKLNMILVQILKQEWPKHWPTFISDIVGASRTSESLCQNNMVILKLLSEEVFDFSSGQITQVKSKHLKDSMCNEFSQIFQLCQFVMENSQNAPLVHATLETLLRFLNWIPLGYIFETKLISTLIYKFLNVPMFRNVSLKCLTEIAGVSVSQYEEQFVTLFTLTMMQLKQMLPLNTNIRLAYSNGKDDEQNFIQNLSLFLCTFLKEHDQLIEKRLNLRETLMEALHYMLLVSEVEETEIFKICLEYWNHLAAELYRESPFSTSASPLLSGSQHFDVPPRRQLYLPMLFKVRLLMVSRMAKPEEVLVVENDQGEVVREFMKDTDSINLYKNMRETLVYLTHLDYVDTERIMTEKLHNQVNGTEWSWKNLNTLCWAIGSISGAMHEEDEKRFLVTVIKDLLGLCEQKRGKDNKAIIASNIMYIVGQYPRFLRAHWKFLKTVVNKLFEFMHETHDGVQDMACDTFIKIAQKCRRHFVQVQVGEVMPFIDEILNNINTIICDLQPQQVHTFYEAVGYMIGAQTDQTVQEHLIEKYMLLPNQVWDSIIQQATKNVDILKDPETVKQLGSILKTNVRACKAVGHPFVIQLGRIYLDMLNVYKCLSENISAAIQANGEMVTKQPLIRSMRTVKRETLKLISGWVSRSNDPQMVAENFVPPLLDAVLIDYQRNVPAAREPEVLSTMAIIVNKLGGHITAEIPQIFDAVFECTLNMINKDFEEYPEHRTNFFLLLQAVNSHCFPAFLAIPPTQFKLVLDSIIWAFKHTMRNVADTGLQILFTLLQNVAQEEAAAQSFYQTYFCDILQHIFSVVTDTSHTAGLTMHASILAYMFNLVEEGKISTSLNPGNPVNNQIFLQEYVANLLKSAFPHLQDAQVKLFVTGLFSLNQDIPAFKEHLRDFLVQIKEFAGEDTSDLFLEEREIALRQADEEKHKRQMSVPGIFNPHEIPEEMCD

CC(C)OC(=O)/C=C\n1cnc(-c2ccc(Cl)cc2)n1
IC50 (Exportin-1 [1]): ≤ 1 µM | Activity (BL-41): Active | Activity (Jurkat): Active | Activity (MM1R): Active | Activity (HCT-116): Active | Activity (HS-Sultan): Active | Activity (PC-3): Active | Activity (MG-63): Active | Activity (SW480): Active | Activity (NCI-H460): Active | Activity (LoVo): Active | Activity (NCI-H520): Active | Activity (COLO 320): Active | Activity (RPMI18226): Active | Activity (SW-620): Active | Activity (Homo sapiens [2]): Active | Activity (NCI-H226): Active | Activity (MCF7): Active | Activity (HCC4006): Active | Activity (HCT-15): Active | Activity (786-0): Active | Activity (HCC827): Active | Activity (NCI-H1838): Active | Activity (4T1): Active | Activity (HeLa): Active | Activity (HPAC): Active | Activity (Caov-3): Active | Activity (DLD-1): Active | Activity (DU-145): Active | Activity (LS180): Active | Activity (HCT-8): Active | Activity (NCI-H2122): Active | Activity (WiDr): Active | Activity (Homo sapiens [3]): Active | Activity (NCI-H2030): Active | inhibition (Exportin-1 [4]): Active | inhibition (Exportin-1 [5]): Active | inhibition (Exportin-1 [6]): Active | inhibition (Exportin-1 [7]): Active | TGI (MM1.S [8]): Active | TGI (MM1.S [9]): Active | inhibition in vivo at 75 mg/kg [10]: 31% | TGI [11]: 60% | Activity [12]: Non-Toxic | Activity [13]: Non-Toxic
